From the CheMixHub ionic liquid set
± gives the uncertainty stated by the source.

Assay: xn = mol fraction of the nth substance listed
Conditions: for electrical conductivity: frequency 0.00293 MHz

CCCCCCCC/C=C\CCCCCCCC(=O)O + CC[N+](CC)(CC)CC.[Cl-]
100 kPa, x2 = 0.25
Conditions	viscosity [mPa·s]
293.1 K	268.5 ± 8.8
313.2 K	95.4 ± 1.7
323.2 K	61.9 ± 0.9

CC#N + CC[NH3+].O=[N+]([O-])[O-]
Conditions	viscosity [mPa·s]
308.19 K, 100 kPa, x2 = 0	0.302 ± 0.019

CC[NH2+]CC.O=[N+]([O-])[O-] + CC[NH3+].O=[N+]([O-])[O-]
101 kPa
Conditions	electrical conductivity [S/m]	viscosity [mPa·s]
293.15 K, x1 = 0.0998	1.73	43.2
293.15 K, x1 = 0.3501	1.46	–
298.15 K, x1 = 0.2501	–	38.3
308.15 K, x1 = 0.0499	2.78	27
313.15 K, x1 = 0.1999	2.79	25.1
313.15 K, x1 = 0.3501	2.63	24.9
318.15 K, x1 = 0.0998	3.44	19.7
318.15 K, x1 = 0.1499	3.39	–
318.15 K, x1 = 0.2998	–	20.3
323.15 K, x1 = 0.1499	3.79	17.9
323.15 K, x1 = 0.1999	3.53	19.1
328.15 K, x1 = 0.0998	–	15.3
338.15 K, x1 = 0.2998	–	12.2
353.15 K, x1 = 0.0998	–	8.96
353.15 K, x1 = 0.1499	–	8.99
353.15 K, x1 = 0.1999	–	9.7
353.15 K, x1 = 0.3501	–	9.47

CCCC[n+]1ccccc1.[Cl-] + CC[n+]1ccccc1.[Br-]
101 kPa
Conditions	viscosity [mPa·s]
388.1 K, x2 = 0.484	30 ± 1.9
388.1 K, x2 = 0.694	23.1 ± 1.3
393.1 K, x2 = 0.64	21.6 ± 1.2
393.1 K, x2 = 0.797	18.11 ± 0.92
403.1 K, x2 = 0.408	21.2 ± 1.3
403.1 K, x2 = 0.604	17.39 ± 0.95
408.1 K, x2 = 0.64	14.86 ± 0.78
408.1 K, x2 = 0.797	12.97 ± 0.62
413.1 K, x2 = 0.193	19.5 ± 1.2
413.1 K, x2 = 0.64	13.22 ± 0.67
413.1 K, x2 = 0.694	12.73 ± 0.62
413.1 K, x2 = 0.797	11.67 ± 0.55
418.1 K, x2 = 0.104	18.3 ± 1.1
418.1 K, x2 = 0.64	11.81 ± 0.58
418.1 K, x2 = 0.694	11.42 ± 0.55
423.1 K, x2 = 0.313	13.73 ± 0.72
423.1 K, x2 = 0.797	9.52 ± 0.43
423.1 K, x2 = 0.894	8.8 ± 0.39
428.1 K, x2 = 0.313	12.22 ± 0.61
428.1 K, x2 = 0.604	9.82 ± 0.46
428.1 K, x2 = 0.694	9.28 ± 0.42
433.1 K, x2 = 0.484	9.72 ± 0.45
433.1 K, x2 = 0.64	8.61 ± 0.39
438.1 K, x2 = 0.604	8.04 ± 0.35
438.1 K, x2 = 0.894	6.68 ± 0.28
443.1 K, x2 = 0.64	7.11 ± 0.3
443.1 K, x2 = 0.797	6.56 ± 0.29

CN1CCCC1=O + CC[n+]1ccn(C)c1.COS(=O)(=O)[O-]
Conditions	viscosity [mPa·s]
313.15 K, 101 kPa, x1 = 1	1.31 ± 0.29

CC#N + CC[n+]1ccn(C)c1.F[B-](F)(F)F
viscosity [mPa·s]
Conditions	303.15 K	313.15 K	323.15 K	333.15 K
100 kPa, x1 = 1	0.354 ± 0.036	–	–	–
101 kPa, x2 = 0	0.326 ± 0.033	0.297 ± 0.03	0.272 ± 0.027	0.249 ± 0.025

CC(=O)c1ccccc1 + CC[n+]1ccn(C)c1.F[B-](F)(F)F
100 kPa
Conditions	viscosity [mPa·s]
293.15 K, x1 = 0.2999	19.7 ± 4
293.15 K, x1 = 0.4003	16 ± 3.2
303.15 K, x1 = 0.094	16.9 ± 3.4
303.15 K, x1 = 0.4989	8.9 ± 1.8
313.15 K, x1 = 0.8918	2.09 ± 0.42
313.15 K, x1 = 0.9498	1.68 ± 0.34
323.15 K, x1 = 0.094	9.4 ± 1.9
323.15 K, x1 = 0.4003	6.3 ± 1.3
323.15 K, x1 = 0.4989	4.73 ± 0.95
333.15 K, x1 = 0.0416	9.1 ± 1.8
333.15 K, x1 = 0.094	7.5 ± 1.5
333.15 K, x1 = 0.4003	5 ± 1
333.15 K, x1 = 0.8918	1.52 ± 0.3
333.15 K, x1 = 0.9498	1.23 ± 0.25
333.15 K, x1 = 1	1.09 ± 0.22
